According to patent publication EP0515927A2, “Pradimicin antibiotics” (priority 1991, dated 1992):
Converted amounts (≈) assume the structure as drawn. Where two headings read alike, the source gives them in different places.

Tests used:
[1] = tested on: herpes simplex virus type I (HSV-1); conditions: 72 h
Vero cells = conditions: HSV-Vero cell, (TD50: 50% cytotoxicity without virus)
C. albicans A9540 = assay: In vivo efficacy against C. albicans A9540 systemic infection in mice; parameters: species or system male ICR mice; conditions: single i.v. injection immediately after i.v. challenge; survivors on 20th day
Method: The in vivo efficacy of pradimicins was evaluated against C. albicans A9540 systemic infection in male ICR mice (20-24 g body weight). The pathogen was cultured for 18 hours at 28°C in YGP medium (yeast extract 0.2%, glucose 1.5%, peptone 0.5%, K2HP04 0.05% and MgS04 0.05%) and resuspended in saline. Mice were challenged intravenously with 10 times lethal dose of the pathogen. Immediately after the fungal challenge, groups of 5 mice received a single intravenous injection of pradimicin S or FS or N-methyl pradimicin S at various dose levels. Amphotericin B and Fluconazol were used as positive controls. The median protective dose (PDso) was determined from the number of surviving mice recorded on the 20th day after the fungal infection.

[2] = Acute toxicity in mice after single i.v. administration; format: in vivo
Method: The acute toxicity of pradimicins S and FS and N-methyl pradimicin S was determined in mice after single administration (i.v.).

various fungal organisms = assay: In vitro antifungal activity, agar dilution method, Yeast Morphology agar with 1/15 M phosphate buffer (pH 7.0); format: cell-based; conditions: summary in words (Table 7 is an image)
Method: The in vitro antifungal activity of pradimicins was determined by a conventional agar dilution method using Yeast Morphology agar containing 1/15 M phosphate buffer (pH 7.0).

influenza virus A = assay: In vitro antiviral activity, influenza virus A-MDCK cell system, dye-uptake assay (inhibition of viral cytopathic effect); format: cell-based; conditions: 50% inhibition of cytopathic effect, 72 hours
[3] = tested on: Madin Darby canine kidney (MDCK) cell; conditions: Influenza virus-MDCK cell, (TD50: 50% cytotoxicity without virus)
[4] = mouse, in vivo, iv, read-out: LD50

Compound | ID50 [1] | ID50 (Vero cells) | PD50 mg/kg (i.v.) (C. albicans A9540) | LD50 [2, 4] | in vitro antifungal activity (various fungal organisms) | ID50 (influenza virus A) | ID50 [3] | LD50 [2]
Nc1nc2c(ncn2COCCO)c(=O)[nH]1 [Acyclovir, reference compound] | 0.09 µg/mL (≈ 0.4 µM) | >100 µg/mL | – | – | – | – | – | –
C[C@@H]1[C@H](O)[C@@H](C)/C=C/C=C/C=C/C=C/C=C/C=C/C=C/[C@H](O[C@@H]2O[C@H](C)[C@@H](O)[C@H](N)[C@@H]2O)C[C@@H]2O[C@](O)(C[C@@H](O)C[C@@H](O)[C@H](O)CC[C@@H](O)C[C@@H](O)CC(=O)O[C@H]1C)C[C@H](O)[C@H]2C(=O)O [Amphotericin B, reference compound] | – | – | 0.31 mg/kg | – | – | – | – | –
OC(Cn1cncn1)(Cn1cncn1)c1ccc(F)cc1F [Fluconazol, reference compound] | – | – | >50 mg/kg | – | – | – | – | –
CN[C@@H]1[C@H](O[C@@H]2O[C@H](CO)[C@@H](O)[C@H](OS(=O)(=O)O)[C@H]2O)[C@@H](O)[C@H](O[C@H]2c3cc(C)c(C(=O)N[C@H](CO)C(=O)O)c(O)c3-c3c(cc4c(c3O)C(=O)c3cc(OC)cc(O)c3C4=O)[C@@H]2O)O[C@@H]1C [Pradimicin FS, pradimicin FS] | >100 µg/mL | >100 µg/mL | 18 mg/kg | 210 mg/kg | activity against various fungal organisms | 82 µg/mL (≈ 84.8 µM) | >100 µg/mL | –
CN[C@@H]1[C@H](O[C@@H]2O[C@H](CO)[C@@H](O)[C@H](OS(=O)(=O)O)[C@H]2O)[C@@H](O)[C@H](O[C@H]2c3cc(C)c(C(=O)N[C@H](C)C(=O)O)c(O)c3-c3c(cc4c(c3O)C(=O)c3cc(OC)cc(O)c3C4=O)[C@@H]2O)O[C@@H]1C [Pradimicin S, pradimicin S] | >100 µg/mL | >100 µg/mL | 35 mg/kg | 244 mg/kg | activity against various fungal organisms | 22 µg/mL (≈ 23.1 µM) | >100 µg/mL | –
NC(=O)c1ncn([C@@H]2O[C@H](CO)[C@@H](O)[C@H]2O)n1 [Ribavirin, reference compound] | – | – | – | – | – | 9.5 µg/mL (≈ 38.9 µM) | – | –
N-methyl pradimicin S [BMY-29273] | – | – | 47 mg/kg | – | activity against various fungal organisms | – | – | ≥ 424 mg/kg
